Experimental data taken from ChEMBL document CHEMBL1150580, “Microsphaerones A and B, two novel gamma-pyrone derivatives from the sponge-derived fungus Microsphaeropsis sp” (J Nat Prod, 2002).
Active and inactive are the calls of the source. The calls are words filed in the database; no cut-off is given here.

Experiments:
Artemia salina = assay: Toxicity to Artemia salina; type: organism-based; conditions: in vivo
Spodoptera littoralis = assay: Insecticidal activity against Spodoptera littoralis larvae; type: functional, organism-based

Row | Structure (SMILES) | Activity (Artemia salina) | Activity (Spodoptera littoralis)
1 | NC(=O)c1coc(/C=C/C=C/CCCCCCC(=O)O)cc1=O [MICROSPHAERONE B] | Non-toxic | inactive
2 | C[C@@H](CC(=O)NC(=O)c1coc(/C=C/C=C/CCCCCCC(=O)O)cc1=O)C(=O)O [MICROSPHAERONE A] | Non-toxic | inactive
